Measurements taken from US11713335B2, “Aminocoumarin compounds and methods of their use” (President and Fellows of Harvard College, priority 2018, dated 2023).
In brackets after ≈: the same amount, converted by molar mass. Read-outs that look alike come from different tables or passages of the source.

Columns and labels:
S. aureus RN4220 = experiment: Minimal inhibitory concentration, S. aureus RN4220; assay type: cell-based; conditions: 16 hour minimal inhibitory concentration at 37° C., read-out: MIC (μM) S. aureus RN4220
Outline: (§1)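 Overnight cultures in LB (TSA for S. aureus) at 37 °C, diluted 1:100 twice, then exposed to twofold serial dilutions of compound from DMSO stock. Plates incubated unshaken 16 h at 37 °C and read at OD600. MIC (µM) is the lowest concentration inhibiting growth.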

E. cloacae 13047 = experiment: Minimal inhibitory concentration, E. cloacae 13047; assay type: cell-based; conditions: 16 hour minimal inhibitory concentration at 37° C., read-out: MIC (μM) E. cloacae 13047
Outline: as §1

S. aureus MW2 = experiment: Minimal inhibitory concentration, S. aureus MW2; assay type: cell-based; conditions: read-out: MIC (μM) S. aureus MW2 (MRSA)
Outline: as §1

K. pneumoniae 700721 = experiment: Minimal inhibitory concentration, K. pneumoniae 700721; assay type: cell-based; conditions: 16 hour minimal inhibitory concentration at 37° C., read-out: MIC (μM) K. pneumoniae 700721
Outline: as §1

E. coli MC4100 = experiment: Minimal inhibitory concentration, E. coli MC4100; assay type: cell-based; conditions: 16 hour minimal inhibitory concentration at 37° C., read-out: MIC (μM) E. coli MC4100 ara+
Outline: as §1

E. coli 25922 = experiment: Minimal inhibitory concentration, E. coli 25922; assay type: cell-based; conditions: 16 hour minimal inhibitory concentration at 37° C., read-out: MIC (μM) E. coli 25922
Outline: as §1

WT E. coli = experiment: Minimal inhibitory concentration in wild-type E. coli; assay type: cell-based, Escherichia coli; conditions: read-out: MIC (μM) in WT E. coli
Outline: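 Broth microdilution: saturated LB overnight culture diluted 1:100 twice, compound serially two-fold diluted across the plate from DMSO stock. Static incubation 16 hours at 37° C, OD600 read; MIC taken as lowest concentration inhibiting growth.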

A. baumannii 19606 = experiment: Minimal inhibitory concentration, A. baumannii 19606; assay type: cell-based; conditions: 16 hour minimal inhibitory concentration at 37° C., read-out: MIC (μM) A. baumannii 19606
Outline: as §1

[1] = 16 hour minimal inhibitory concentration at 37° C.
[2] = wild-type E. coli, 37° C., 16 hours
[3] = Staphylococcus aureus, RN4220, 16 h

Row | SMILES | MIC (S. aureus RN4220) | MIC (E. cloacae 13047) | MIC (S. aureus MW2; [1]) | MIC (K. pneumoniae 700721) | MIC (E. coli MC4100) | MIC (E. coli 25922) | MIC (WT E. coli; [2]) | MIC (A. baumannii 19606) | also measured
1 | CO[C@@H]1[C@@H](OC(N)=O)[C@@H](O)[C@H](Oc2ccc3c(O)c(NC(=O)c4cccc(-c5ccccc5[N+](=O)[O-])c4)c(=O)oc3c2C)OC1(C)C [Compound 64] | 77 µM (≈ 50 µg/mL) | >100 µM | 39 µM (≈ 25.3 µg/mL) | >100 µM | >200 µM | >200 µM | >300 µM | >50 µM | 
2 | CO[C@@H]1[C@@H](OC(N)=O)[C@@H](O)[C@H](Oc2ccc3c(O)c(NC(=O)c4cccc(-c5ccccc5N)c4)c(=O)oc3c2C)OC1(C)C [Compound 65] | 81 µM (≈ 50.2 µg/mL) | >100 µM | 40 µM (≈ 24.8 µg/mL) | >100 µM | 59 µM (≈ 36.6 µg/mL) | >200 µM | 59 µM (≈ 36.6 µg/mL) | >50 µM | 
3 | CO[C@@H]1[C@@H](OC(N)=O)[C@@H](O)[C@H](Oc2ccc3c(O)c(NC(=O)c4cc(-c5ccccc5)c(OCc5ccccc5)cc4OCc4ccccc4)c(=O)oc3c2C)OC1(C)C [Compound 66] | >100 µM | >100 µM | >100 µM | >100 µM | >200 µM | >200 µM | >300 µM | >50 µM | 
4 | CO[C@@H]1[C@@H](OC(N)=O)[C@@H](O)[C@H](Oc2ccc3c(O)c(NC(=O)c4cc(-c5ccccc5)c(O)cc4O)c(=O)oc3c2C)OC1(C)C [Compound 67] | 10 µM (≈ 6.37 µg/mL) | >100 µM | 5 µM (≈ 3.18 µg/mL) | 79 µM (≈ 50.3 µg/mL) | 18 µM (≈ 11.5 µg/mL) | 5 µM (≈ 3.18 µg/mL) | 18 µM (≈ 11.5 µg/mL) | >50 µM | 
5 | CO[C@@H]1[C@@H](OC(N)=O)[C@@H](O)[C@H](Oc2ccc3c(O)c(NC(=O)c4cccc(-c5ccc(Br)cc5)c4)c(=O)oc3c2C)OC1(C)C [Compound 68] |  |  |  |  |  |  |  |  | MIC (S. aureus RN4220; [3]): 0.91 µM (≈ 0.622 µg/mL); MIC (E. cloacae 13047; Enterobacter cloacae, 13047): > 100 µM; MIC (S. aureus MW2; Staphylococcus aureus, MRSA, 16 h, 16 hour minimal inhibitory concentration at 37° C.): 0.91 µM (≈ 0.622 µg/mL); MIC (K. pneumoniae 700721; Klebsiella pneumoniae, 700721): > 100 µM; MIC (E. coli MC4100; Escherichia coli, MC4100, 16 h): 18 µM (≈ 12.3 µg/mL); MIC (E. coli 25922; Escherichia coli, 25922, 16 h): 18 µM (≈ 12.3 µg/mL); MIC (WT E. coli; Escherichia coli, wild-type E. coli, 37° C., 16 hours): 18 µM (≈ 12.3 µg/mL); MIC (A. baumannii 19606; Acinetobacter baumannii, 19606, 16 h): 18 µM (≈ 12.3 µg/mL)
6 | CO[C@@H]1[C@@H](OC(N)=O)[C@@H](O)[C@H](Oc2ccc3c(O)c(NC(=O)c4cccc(Cc5ccccc5)c4)c(=O)oc3c2C)OC1(C)C [Compound 69] | 5 µM (≈ 3.09 µg/mL) | >100 µM | 3 µM (≈ 1.86 µg/mL) | >100 µM | 89 µM (≈ 55.1 µg/mL) | 81 µM (≈ 50.1 µg/mL) | 89 µM (≈ 55.1 µg/mL) | >50 µM | 
7 | CO[C@@H]1[C@@H](OC(N)=O)[C@@H](O)[C@H](Oc2ccc3c(O)c(NC(=O)c4ccc5ccn(C)c5c4)c(=O)oc3c2C)OC1(C)C [Compound 70] | 86 µM (≈ 50 µg/mL) | >100 µM | 43 µM (≈ 25 µg/mL) | >100 µM | >200 µM | >200 µM | >300 µM | >50 µM | 
8 | CO[C@@H]1[C@@H](OC(N)=O)[C@@H](O)[C@H](Oc2ccc3c(O)c(NC(=O)c4ccc5ccn(C)c5c4)c(=O)oc3c2C)OC1(C)C.Cl [Compound 71] | 81 µM | >100 µM | 41 µM | >100 µM | >200 µM | >200 µM | >300 µM | >50 µM | 
9 | CO[C@@H]1[C@@H](OC(N)=O)[C@@H](O)[C@H](Oc2ccc3c(O)c(NC(=O)c4ccc5c(ccn5C)c4)c(=O)oc3c2C)OC1(C)C [Compound 72] | 86 µM (≈ 50 µg/mL) | >100 µM | 43 µM (≈ 25 µg/mL) | >100 µM | >200 µM | >200 µM | >300 µM | >50 µM | 
10 | CO[C@@H]1[C@@H](OC(N)=O)[C@@H](O)[C@H](Oc2ccc3c(O)c(NC(=O)c4ccc5c(ccn5C)c4)c(=O)oc3c2C)OC1(C)C.Cl [Compound 73] | >100 µM | >100 µM | 81 µM | >100 µM | >200 µM | >200 µM | >300 µM | >50 µM | 
11 | CO[C@@H]1[C@@H](OC(N)=O)[C@@H](O)[C@H](Oc2ccc3c(O)c(NC(=O)c4cccc5ccn(C)c45)c(=O)oc3c2C)OC1(C)C [Compound 74] | >100 µM | >100 µM | >100 µM | >100 µM | >200 µM | >200 µM | >300 µM | >50 µM | 
12 | CO[C@@H]1[C@@H](OC(N)=O)[C@@H](O)[C@H](Oc2ccc3c(O)c(NC(=O)c4cc(-c5ccccc5)cc(-c5ccccc5)c4)c(=O)oc3c2C)OC1(C)C [Compound 75] | 18 µM (≈ 12.3 µg/mL) | >100 µM | 9 µM (≈ 6.13 µg/mL) | >100 µM | >200 µM | >200 µM | >300 µM | >50 µM | 
13 | CO[C@@H]1[C@@H](OC(N)=O)[C@@H](O)[C@H](Oc2ccc3c(O)c(NC(=O)c4ccc(C#Cc5ccccc5)cc4)c(=O)oc3c2C)OC1(C)C [Compound 76] | 5 µM (≈ 3.14 µg/mL) | >100 µM | 3 µM (≈ 1.89 µg/mL) | >100 µM | 40 µM (≈ 25.1 µg/mL) | 80 µM (≈ 50.3 µg/mL) | 40 µM (≈ 25.1 µg/mL) | 40 µM (≈ 25.1 µg/mL) | 
14 | CO[C@@H]1[C@@H](OC(N)=O)[C@@H](O)[C@H](Oc2ccc3c(O)c(NC(=O)c4ccc(CCc5ccccc5)cc4)c(=O)oc3c2C)OC1(C)C [Compound 77] | 10 µM (≈ 6.33 µg/mL) | >100 µM | 5 µM (≈ 3.16 µg/mL) | >100 µM | 40 µM (≈ 25.3 µg/mL) | 40 µM (≈ 25.3 µg/mL) | 40 µM (≈ 25.3 µg/mL) | >50 µM | 
15 | CO[C@@H]1[C@@H](OC(N)=O)[C@@H](O)[C@H](Oc2ccc3c(O)c(NC(=O)c4cc(O)cc(-c5ccccc5)c4)c(=O)oc3c2C)OC1(C)C [Compound 78] | 5 µM (≈ 3.1 µg/mL) | >100 µM | 4 µM (≈ 2.48 µg/mL) | >100 µM | 59 µM (≈ 36.6 µg/mL) | 40 µM (≈ 24.8 µg/mL) | 59 µM (≈ 36.6 µg/mL) | 40 µM (≈ 24.8 µg/mL) | 
16 | CO[C@@H]1[C@@H](OC(N)=O)[C@@H](O)[C@H](Oc2ccc3c(O)c(NC(=O)c4ccc(O)c(-c5ccc(F)cc5)c4)c(=O)oc3c2C)OC1(C)C [Compound 79] | 2 µM (≈ 1.28 µg/mL) | >100 µM | 0.98 µM (≈ 0.626 µg/mL) | 78 µM (≈ 49.8 µg/mL) | 26 µM (≈ 16.6 µg/mL) | 20 µM (≈ 12.8 µg/mL) | 26 µM (≈ 16.6 µg/mL) | 20 µM (≈ 12.8 µg/mL) | 
17 | CO[C@@H]1[C@@H](OC(N)=O)[C@@H](O)[C@H](Oc2ccc3c(O)c(NC(=O)c4ccc(O)c(C/C=C/C(C)=O)c4)c(=O)oc3c2C)OC1(C)C [Compound 81] |  |  |  |  |  |  |  |  | MIC (S. aureus RN4220; [3]): 40 µM (≈ 25.1 µg/mL); MIC (E. cloacae 13047; Enterobacter cloacae, 13047): > 100 µM; MIC (S. aureus MW2; Staphylococcus aureus, MRSA, 16 h): 40 µM (≈ 25.1 µg/mL); MIC (K. pneumoniae 700721; Klebsiella pneumoniae, 700721): > 100 µM; MIC (E. coli MC4100; Escherichia coli, MC4100): > 200 µM; MIC (E. coli 25922; Escherichia coli, 25922): > 200 µM; MIC (WT E. coli; Escherichia coli, 16 h): > 300 µM; MIC (A. baumannii 19606; Acinetobacter baumannii, 19606): > 50 µM
18 | CO[C@@H]1[C@@H](OC(N)=O)[C@@H](O)[C@H](Oc2ccc3c(O)c(NC(=O)c4ccc(O)c(C/C=C/C(=O)O)c4)c(=O)oc3c2C)OC1(C)C [Compound 82] | >100 µM | >100 µM | >100 µM | >100 µM | >200 µM | >200 µM | >300 µM | >50 µM | 
19 | CO[C@@H]1[C@@H](OC(N)=O)[C@@H](O)[C@H](Oc2ccc3c(O)c(NC(=O)c4ccc(O)c(-c5ccccc5)c4)c(=O)oc3c2C)OC1(C)C [Compound 83] | 3 µM (≈ 1.86 µg/mL) | >100 µM | 2.5 µM (≈ 1.55 µg/mL) | >100 µM | 26 µM (≈ 16.1 µg/mL) | 40 µM (≈ 24.8 µg/mL) | 26 µM (≈ 16.1 µg/mL) | 20 µM (≈ 12.4 µg/mL) | 
